Data from article PMC11845477, “Exploring the principles behind antibiotics with limited resistance” (Nature Communications, 2025).
Where a SMILES comes first, the peptide text is derived from it. Bridges are numbered along the chain shown (N, C = ends). [ ]: non-standard residue; d: D form. The star is where a group is joined. X1 = NC[C@@H](CC(=O)*)c1cccc(Cl)c1; Dab = NCC[C@H](N)C(=O)O; Dap = NC[C@H](N)C(=O)O

Test system: P. aeruginosa ATCC BAA-3107 (SEN) and P. aeruginosa LESB58 (MDR)
Assay: Adaptive laboratory evolution (ALE), relative MIC of evolved lines
Assay type: cell-based, Pseudomonas aeruginosa
Procedure, shortened: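 Ten parallel populations per antibiotic–ancestor pair were evolved in MHB at 37 °C, starting near 50% growth-inhibiting drug. Every 72 h they were passaged into 0.5–2.5× increasing concentrations, keeping the highest-drug well with OD600 > 0.2.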

In the case of `CC(C)C[C@@H]1NC(=O)[C@@H](Cc2ccccc2)NC(=O)[C@H](CCN)NC(=O)[C@@H](NC(=O)[C@H](CN)NC(=O)[C@@H](NC(=O)C[C@H](CN)c2cccc(Cl)c2)[C@@H](C)O)CCNC(=O)[C@H]([C@@H](C)O)NC(=O)[C@H](CCN)NC(=O)[C@H](CCN)NC1=O` [SPR206] (X1-T[Dap][Dab][Dab][dF]L[Dab][Dab]T; lactam 3-C (inferred); N-terminus assumed), the “Relative MIC” value (ALE, P. aeruginosa ATCC BAA 3107 (PA-SEN), evolved line 1) is reported as 16, the “Relative MIC” value (ALE, P. aeruginosa ATCC BAA 3107 (PA-SEN), evolved line 2) is reported as 32 and the “Relative MIC” value (ALE, P. aeruginosa ATCC BAA 3107 (PA-SEN), evolved line 4) is reported as 16. For the same compound, the “Relative MIC” value (ALE, P. aeruginosa ATCC BAA 3107 (PA-SEN), evolved line 5) was 16, the “Relative MIC” value (ALE, P. aeruginosa ATCC BAA 3107 (PA-SEN), evolved line 8) was 8 and the “Relative MIC” value (ALE, P. aeruginosa ATCC BAA 3107 (PA-SEN), evolved line 9) was 32. For the same compound, the “Relative MIC” value (ALE, P. aeruginosa ATCC BAA 3107 (PA-SEN), evolved line 10) was 2, the “Relative MIC” value (PA-MDR (LESB 58), evolved line 1, evolved vs ancestor) was 16 and the “Relative MIC” value (PA-MDR (LESB 58), evolved line 2, evolved vs ancestor) was 16. The “Relative MIC” value (PA-MDR (LESB 58), evolved line 3, evolved vs ancestor) was 16, the “Relative MIC” value (PA-MDR (LESB 58), evolved line 4, evolved vs ancestor) was 8 and the “Relative MIC” value (PA-MDR (LESB 58), evolved line 5, evolved vs ancestor) was 16. For the same compound, the “Relative MIC” value (PA-MDR (LESB 58), evolved line 6, evolved vs ancestor) was 32, the “Relative MIC” value (PA-MDR (LESB 58), evolved line 7, evolved vs ancestor) was 16 and the “Relative MIC” value (PA-MDR (LESB 58), evolved line 8, evolved vs ancestor) was 4. The “Relative MIC” value (PA-MDR (LESB 58), evolved line 9, evolved vs ancestor) was 16, the “Relative MIC” value (PA-MDR (LESB 58), evolved line 10, evolved vs ancestor) was 32 and the MIC of evolved line (PA-MDR (LESB 58), evolved line 4) was 32 µg/mL. For the same compound, the MIC of evolved line (PA-MDR (LESB 58), evolved line 5) was 64 µg/mL, the MIC of evolved line (PA-MDR (LESB 58), evolved line 6) was 128 µg/mL and the MIC of evolved line (PA-MDR (LESB 58), evolved line 7) was 64 µg/mL. For the same compound, the MIC of evolved line (PA-MDR (LESB 58), evolved line 8) was 16 µg/mL, the MIC of evolved line (PA-MDR (LESB 58), evolved line 9) was 64 µg/mL and the MIC of evolved line (PA-MDR (LESB 58), evolved line 10) was 128 µg/mL. For the same compound, the “Relative MIC (log10)” value (PA-MDR (Pseudomonas aeruginosa LESB 58), evolved line 1) was 1.204 log10, the “Relative MIC (log10)” value (PA-MDR (Pseudomonas aeruginosa LESB 58), evolved line 6) was 1.505 log10 and the MIC of evolved line (PA-MDR LESB 58, evolved line 1) was 64 µg/mL. The MIC of evolved line (PA-MDR LESB 58, evolved line 2) was 64 µg/mL, the MIC of evolved line (PA-MDR LESB 58, evolved line 3) was 64 µg/mL and the “Relative MIC (log10)” value (PA-MDR, Pseudomonas aeruginosa LESB 58, evolved line 9) was 1.204 log10. For the same compound, the “Relative MIC (log10)” value (PA-MDR, Pseudomonas aeruginosa LESB 58, evolved line 10) was 1.505 log10, the “Relative MIC (log10)” value (PA-MDR, Pseudomonas aeruginosa LESB 58, evolved line 3) was 1.204 log10 and the “Relative MIC” value (PA-SEN (ATCC BAA 3107), evolved line 1, evolved vs ancestor) was 16. For the same compound, the “Relative MIC” value (PA-SEN (ATCC BAA 3107), evolved line 2, evolved vs ancestor) was 32, the “Relative MIC” value (PA-SEN (ATCC BAA 3107), evolved line 4, evolved vs ancestor) was 16 and the “Relative MIC” value (PA-SEN (ATCC BAA 3107), evolved line 5, evolved vs ancestor) was 16. The “Relative MIC” value (PA-SEN (ATCC BAA 3107), evolved line 8, evolved vs ancestor) was 8, the “Relative MIC” value (PA-SEN (ATCC BAA 3107), evolved line 9, evolved vs ancestor) was 32 and the “Relative MIC” value (PA-SEN (ATCC BAA 3107), evolved line 10, evolved vs ancestor) was 2. The MIC of evolved line (PA-SEN (ATCC BAA 3107), evolved line 2) was 32 µg/mL, the MIC of evolved line (PA-SEN (ATCC BAA 3107), evolved line 4) was 16 µg/mL and the MIC of evolved line (PA-SEN (ATCC BAA 3107), evolved line 5) was 16 µg/mL. The MIC of evolved line (PA-SEN (ATCC BAA 3107), evolved line 8) was 8 µg/mL, the MIC of evolved line (PA-SEN (ATCC BAA 3107), evolved line 9) was 32 µg/mL and the MIC of evolved line (PA-SEN (ATCC BAA 3107), evolved line 10) was 2 µg/mL. For the same compound, the MIC of evolved line (PA-SEN ATCC BAA 3107, evolved line 1) was 16 µg/mL, the “Relative MIC (log10)” value (PA-SEN, Pseudomonas aeruginosa ATCC BAA 3107, evolved line 1) was 1.204 log10 and the “Relative MIC (log10)” value (PA-SEN, Pseudomonas aeruginosa ATCC BAA 3107, evolved line 2) was 1.505 log10. The “Relative MIC (log10)” value (PA-SEN, Pseudomonas aeruginosa ATCC BAA 3107, evolved line 4) was 1.204 log10, the “Relative MIC (log10)” value (PA-SEN, Pseudomonas aeruginosa ATCC BAA 3107, evolved line 5) was 1.204 log10 and the “Relative MIC (log10)” value (PA-SEN, Pseudomonas aeruginosa ATCC BAA 3107, evolved line 9) was 1.505 log10. For the same compound, the “Relative MIC” value (Pseudomonas aeruginosa ATCC BAA 3107 (PA-SEN), evolved line 1) was 16, the “Relative MIC” value (Pseudomonas aeruginosa ATCC BAA 3107 (PA-SEN), evolved line 2) was 32 and the “Relative MIC” value (Pseudomonas aeruginosa ATCC BAA 3107 (PA-SEN), evolved line 4) was 16. The “Relative MIC” value (Pseudomonas aeruginosa ATCC BAA 3107 (PA-SEN), evolved line 5) was 16, the “Relative MIC” value (Pseudomonas aeruginosa ATCC BAA 3107 (PA-SEN), evolved line 8) was 8 and the “Relative MIC” value (Pseudomonas aeruginosa ATCC BAA 3107 (PA-SEN), evolved line 9) was 32. The “Relative MIC” value (Pseudomonas aeruginosa ATCC BAA 3107 (PA-SEN), evolved line 10) was 2, the “Relative MIC” value (Pseudomonas aeruginosa LESB 58 (PA-MDR), evolved line 1) was 16 and the “Relative MIC” value (Pseudomonas aeruginosa LESB 58 (PA-MDR), evolved line 2) was 16. For the same compound, the “Relative MIC” value (Pseudomonas aeruginosa LESB 58 (PA-MDR), evolved line 3) was 16, the “Relative MIC” value (Pseudomonas aeruginosa LESB 58 (PA-MDR), evolved line 4) was 8 and the “Relative MIC” value (Pseudomonas aeruginosa LESB 58 (PA-MDR), evolved line 5) was 16. For the same compound, the “Relative MIC” value (Pseudomonas aeruginosa LESB 58 (PA-MDR), evolved line 6) was 32, the “Relative MIC” value (Pseudomonas aeruginosa LESB 58 (PA-MDR), evolved line 7) was 16 and the “Relative MIC” value (Pseudomonas aeruginosa LESB 58 (PA-MDR), evolved line 8) was 4. The “Relative MIC” value (Pseudomonas aeruginosa LESB 58 (PA-MDR), evolved line 9) was 16 and the “Relative MIC” value (Pseudomonas aeruginosa LESB 58 (PA-MDR), evolved line 10) was 32.
